Data as given in patent US7705203B2, “Benzoate inductible promoters” (Purdue Research Foundation, priority 2002, dated 2010).
Entries after “also recorded” stand apart in the source; their conditions may differ.

Assays:
GAD1 and GAD11 genes = test: RT-PCR expression of GAD1 and GAD11 genes in response to benzoic acid; assay type: cell-based, A. niger; settings: 8 mM benzoic acid for 5 h
Procedure: Total RNA was extracted from uninduced and benzoic acid-induced A. niger mycelia as described earlier, and approximately 1 μg was used to synthesize first strand cDNAs with the SuperScript First-strand Synthesis System for RT-PCR (Invitrogen, Carlsbad, Calif.). The reaction was carried out in the presence of 0.5 μg of an oligo(dT) primer, 0.5 mM dNTP mix, 5 mM MgCl2, 10 mM DTT, 1× RT buffer (20 mM Tris.HCl pH 8.4, 50 mM KCl), RNAseOUT™ RNAse inhibitor, and 50 U of SuperScript™ II Reverse Transcriptase. Tubes were incubated at 42° C. for 50 min, after which the reaction was terminated at 70° C. for 15 min. RNAse H was added, and tubes were incubated for an additional 20 min at 37° C. Double-stranded cDNAs were amplified by PCR using Red Taq DNA Polymerase (Sigma-Aldrich, St. Louis, Mo.), dNTP's, and gene specific primers: GAD1F (5′-[…]-3′, SEQ ID NO:30), GAD1R (5′-[…]-3′, SEQ ID NO:31), GAD11F (5′-[…]-3′, SEQ ID NO:32), and GAD11R (5′-[…]-3′, SEQ ID NO:33). PCR amplification consisted of a denaturation step at 94° C. for 5 min, followed by 30 cycles, each of denaturation at 94° C. for 45 sec, annealing at 56° C. for 30 sec, and extension at 72° C. for 1 min. A final extension step at 72° C. for 10 min was also included. Amplified cDNAs were separated on a 0.8% agarose gel containing EtBr, and bands were visualized under UV light.

bphA gene = test: RNA (Northern) blot of bphA gene transcription in mycelia; assay type: cell-based, Aspergillus niger
Procedure: The time course gene expression induction was examined by analyzing total RNA at different times after adding benzoic acid. Northern (RNA) blots were carried out using total RNA extracted from mycelia grown for different periods of time in the presence of benzoic acid. Initially, the fungus was inoculated in CM medium (Pontecorvo (1953) Adv. Genet. 5: 141-238) for 24 hours, transferred to benzoate-containing medium (0.1% w/v) for different times, and total RNA was extracted using the Rneasy Plant Total RNA kit (Qiagen Inc, Valencia, Calif.) according to the manufacturer's instructions. Total RNA was resolved on a formaldehyde-agarose gel and transferred to a Hybond-N nylon membrane (Amersham Life Sci. Inc, Arlington Heights, Ill.). Radiolabeled BPH probe was allowed to hybridize to the membrane, as described above. Northern blot methods were also carried out as recommended (Amersham).
Different benzoate concentrations and inducers were used to better characterize the inducibility of the bphA gene. Gene expression was assayed by Northern blots. Benzoate 4-hydroxylase activity is also assessed by enzymatic assays to confirm the inducibility at the transcriptional level described by Van Gorcom et al. ((1990) Mol. Gen. Genet. 223, 192-197). Inducibility is also verified by reverse transcription of mRNAs produced under induction conditions.
To verify the inducibility of the bphA gene by benzoic acid, A. niger was inoculated in complete medium and grown for 24 hours before being transferred to fresh medium containing 0.1% benzoic acid. Mycelia were harvested after different periods of induction, and total RNA was extracted.

## O=C(O)c1ccccc1 [benzoic acid]
GAD1 and GAD11 genes
  expression of GAD1: expressed constitutively; also recorded: constitutive
  expression of GAD11: slightly downregulated; also recorded: slightly down-regulated
bphA gene; 8 mM inducer, RNA blot (FIG. 4)
  induction of transcription of the bphA gene: induced
bphA gene; concentration curves
  benzoic acid concentrations as low as ... induce transcription of the bphA gene: 0.8 mM
